Earlier results in patent US20240115713A1, “POLYETHYLENE GLYCOL CONJUGATE DRUG, AND PREPARATION METHOD THEREFOR AND USE THEREOF” (CHONGQING UPGRA BIOTECHNOLOGY CO., LTD., priority 2020, published 2024).

Molecular target: FA receptors
Settings: read-out: Kd, binding affinity to the FA receptors

Kd: ~0.1 nM
Structure (SMILES): Nc1nc2ncc(CNc3ccc(C(=O)N[C@@H](CCC(=O)O)C(=O)O)cc3)nc2c(=O)[nH]1 [FA, folic acid]
